Laboratory results: patent US20250102494A1, “COMPOSITION FOR PREDICTING OXALIPLATIN DRUG EFFICACY, AND USE THEREOF” (SAMSUNG LIFE PUBLIC WELFARE FOUNDATION, priority 2022, published 2025)

System: HCT116 cells
Experiment: ATPlite cell viability after drug treatment, HCT116 cells in cell-line or organoid culture media
Assay type: cell-based
Conditions: HCT-116; for drug response, colorectal cancer cell line compared with cells under Ex1 organoid culture conditions: FIG. 2; for drug responsiveness, colorectal cancer cell line compared with organoids cultured in Ex1 and Ex2: FIG. 25
Protocol: Advanced DMEM/F12+++ (hereinafter referred to as “Ad/DF+++”) was used to produce colorectal cancer organoids. Ad/DF+++ was refrigerated at 4° C. until use, and was used in a cold state during cell washing. Ad/DF+++ medium containing the reagents shown in Table 1 below along with Ad/DF 1× (Gibco) was prepared.
After preparing the Ad/DF+++ medium containing the above reagents, an appropriate amount of Matrigel (Corning #356231) was added so that the ratio between Matrigel and cells suspended in the Ad/DF+++ medium was 7:3. Then, the cells were plated on low attachment well plates at an appropriate density. The density and the type and number of well plates were determined according to the characteristics of each cell type. The medium was prepared according to the composition shown in Table 2 below, and the cells were cultured (expanded) until the required level was reached while the medium was replaced every 3 to 4 days.
If the organoids were expanded as needed for the experiment, the medium was carefully removed, taking care not to touch the Matrigel. The cells were separated from the Matrigel by pipetting about 20 times with 1 ml of cold Ad/DF+++. The cells in 1 to 4 wells per 6-well plate were collected in one 50 ml tube. If cells are collected from more than 4 wells into one tube, the Metrigel may not be washed properly. For this reason, the cells were placed in several tubes. Thereafter, Ad/DF+++ was poured to 20 to 50 ml of each tube, followed by centrifugation at 400 g for 3 minutes at 4° C. The cells were dissociated with 1 to 2 mL of TrypLE™ Express Enzyme (Gibco, 1264-013), transferred to low-attachment 24 well plates, and then treated with 10 μM of Y-27632. Next, the cells were cultured in a CO2 incubator for 5 minutes at 37° C. After pipetting about 20 times, whether the cells would be dissociated into single cells was checked by microscopic observation. If the cells were not dissociated into single cells, the culture under CO2 and pipetting processes were repeated. After the single cells were transferred into 15-ml tubes, Ad/DF+++ was filled to 10 to 15 ml of each tube, followed by centrifugation at 400 g at 4° C. for 3 minutes. After suspending the pellet in Ad/DF+++, the cells were counted and diluted with medium according to the required number of cells.
12 hours after seeding in Experimental Example 1-2 above, the medium was changed with the medium shown in Table 3 below, followed by culturing to produce organoids.
Four hours after the medium change, the cells were treated with oxaliplatin, 5-FU, Irinotecan, and folinic acid. Five days after drug treatment, intracellular ATP expression was determined using the ATPlite assay kit (PerkinElmer), and the data were expressed in terms of cell viability, IC50, and AUC.
As the standard for confirming that cells are sensitive to the drug, the response of the cells to the drug was assumed to be 100%, and the luminescence value of surviving cells after drug treatment was analyzed and compared with the quantified drug response value.
Based on the assumption that the factor that increases the resistance of the organoids to oxaliplatin is an activator or inhibitor that changes the phenotype, the organoids prepared by excluding some or all of activators and inhibitors as shown in Table 4 below were treated with oxaliplatin.
In order to identify the factors that reduce the resistance to oxaliplatin of the Ex2 organoid, activators or inhibitors that change the phenotype were added one by one to the Ex2 organoid composition, thus producing organoids as shown in Table 8 below. Then, it was checked whether the produced organoids had increased resistance to oxaliplatin.

Compound	drug response, colorectal cancer cell line compared with cells under Ex1 organoid culture conditions	drug responsiveness, colorectal cancer cell line compared with organoids cultured in Ex1 and Ex2
CCc1c2c(nc3ccc(OC(=O)N4CCC(N5CCCCC5)CC4)cc13)-c1cc3c(c(=O)n1C2)COC(=O)[C@]3(O)CC [irinotecan]	drug response results similar to those of the cells cultured under the organoids culture conditions	drug responses similar to the cells cultured in the organoid culture conditions
O=c1[nH]cc(F)c(=O)[nH]1 [5-FU, 5-fluorouracil]	drug response results similar to those of the cells cultured under the organoids culture conditions	drug responses similar to the cells cultured in the organoid culture conditions
Nc1nc(=O)c2c([nH]1)NCC(CNc1ccc(C(=O)N[C@@H](CCC(=O)O)C(=O)O)cc1)N2C=O (mixture of isomers) [folinic acid]	drug response results similar to those of the cells cultured under the organoids culture conditions	drug responses similar to the cells cultured in the organoid culture conditions
